Measurements reported in publication PMC8841757, “Direct Inhibition of GSDMD by PEITC Reduces Hepatocyte Pyroptosis and Alleviates Acute Liver Injury in Mice” (Frontiers in Immunology, 2022).

Tests used:
human GSDMD WT-EGFP [1] = biological target: T1, human GSDMD WT-EGFP (Homo sapiens, UniProt P57764); experiment: cellular thermal shift assay (CETSA), western blot; assay type: cell-based; settings: transfected HEK293T cells, 2 h
T1 construct: GSDMD WT fused to EGFP, transiently expressed in HEK293T cells, cell lysate (MST) or cells (CETSA)
T1 sequence (P57764 1-484): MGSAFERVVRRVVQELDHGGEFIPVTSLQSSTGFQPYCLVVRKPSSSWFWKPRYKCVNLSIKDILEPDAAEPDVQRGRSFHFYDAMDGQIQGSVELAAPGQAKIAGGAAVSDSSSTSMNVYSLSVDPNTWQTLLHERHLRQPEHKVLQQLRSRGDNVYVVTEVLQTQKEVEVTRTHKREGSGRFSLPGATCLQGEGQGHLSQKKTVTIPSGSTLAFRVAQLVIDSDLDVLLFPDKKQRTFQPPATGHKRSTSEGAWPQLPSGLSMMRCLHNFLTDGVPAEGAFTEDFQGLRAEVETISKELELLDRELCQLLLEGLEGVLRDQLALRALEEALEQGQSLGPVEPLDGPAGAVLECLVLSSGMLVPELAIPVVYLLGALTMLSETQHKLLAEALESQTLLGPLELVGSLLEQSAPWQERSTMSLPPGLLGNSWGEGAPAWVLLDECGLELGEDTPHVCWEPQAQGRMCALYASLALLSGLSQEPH

human GSDMD WT-EGFP [2] = biological target: T1, human GSDMD WT-EGFP; experiment: microscale thermophoresis in cell lysate; assay type: biochemical
mouse GSDMD WT-EGFP = biological target: T2, mouse GSDMD WT-EGFP (Mus musculus, UniProt Q9D8T2); experiment: microscale thermophoresis in cell lysate; assay type: biochemical
T2 construct: GSDMD WT fused to EGFP, transiently expressed in AML12 cells, cell lysate (MST); CETSA in AML12 cells with no transfection stated
T2 sequence (Q9D8T2 1-487): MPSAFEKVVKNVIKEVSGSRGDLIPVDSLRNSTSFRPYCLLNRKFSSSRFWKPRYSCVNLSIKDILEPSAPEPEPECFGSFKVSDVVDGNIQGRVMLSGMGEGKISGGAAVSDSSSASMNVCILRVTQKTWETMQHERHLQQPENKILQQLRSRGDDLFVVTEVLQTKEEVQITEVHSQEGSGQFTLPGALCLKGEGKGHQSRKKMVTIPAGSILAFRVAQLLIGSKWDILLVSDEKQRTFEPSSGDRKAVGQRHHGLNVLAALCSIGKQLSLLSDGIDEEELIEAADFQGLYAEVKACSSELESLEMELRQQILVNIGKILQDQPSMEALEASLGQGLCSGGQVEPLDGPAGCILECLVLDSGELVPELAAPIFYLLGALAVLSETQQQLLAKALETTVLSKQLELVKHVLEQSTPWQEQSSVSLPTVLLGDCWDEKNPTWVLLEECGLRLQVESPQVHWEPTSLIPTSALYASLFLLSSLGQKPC

Row | Structure (SMILES) | thermal stability (CETSA) (human GSDMD WT-EGFP [1]; 3 μM NSA) | Kd (human GSDMD WT-EGFP [2]) [nM] | Kd (mouse GSDMD WT-EGFP) [nM] | thermal stability (CETSA) (human GSDMD WT-EGFP [1]; 3 μM PEITC)
1 | COc1nccnc1NS(=O)(=O)c1ccc(NC(=O)/C=C/c2ccc([N+](=O)[O-])s2)cc1 [NSA] | NSA enhanced the thermal stability of human WT-GSDMD | 11200 | – | –
2 | S=C=NCCc1ccccc1 [PEITC] | – | 230 | 308 | PEITC reduced the thermal stability of human WT-GSDMD
